Measured values reported in patent US11291206B2, “Herbicidal composition comprising cinmethylin and specific pigment synthesis inhibitors” (BASF Agro B.V., priority 2015, dated 2022).

What was measured:
Type in all cases: in vivo
Brassica napus = test: Greenhouse pre-emergence herbicidal activity; details: preemergence, BRSNW, 20 DAT
Experimental: (§1) The test plants have been seeded, separately for each species, in plastic containers in sandy loamy soil containing 5% of organic matter.
(§2) The containers were irrigated gently to promote germination and growth and subsequently covered with transparent plastic hoods until the plants had rooted.
(§3) The plants have been cultivated due to their individual requirements at 10-25° C. and 20-35° C. The plants were irrigated due to their necessity.
(§4) The racemic mixture (±)-2-exo-(2-M ethylbenzyloxy)-1-methyl-4-isopropyl-7-oxabicyclo[2.2.1]heptane was used as herbicide A and formulated as emulsifiable concentrates with an active ingredient concentration of 50g/I, 100 g/I or 750 g/I respectively.
(§5) Clomazone (herbicide B.3) was used as wettable powder (WP) formulation having an active ingredient concentration of 50%.
(§6) In the following experiments, the herbicidal activity for the individual herbicidal compositions (solo and mixture applications) was assessed 20 days after treatment (DAT).
(§7) The evaluation for the damage on undesired weeds caused by the chemical compositions was carried out using a scale from 0 to 100%, compared to the untreated control plants. Here, 0 means no damage and 100 means complete destruction of the plants.
(§8) E=X+Y−(X·Y/100) where • X=effect in percent using herbicide A at an application rate a; • Y=effect in percent using herbicide B at application rate b; • E=expected effect (in %) of herbicide A+herbicide B at application rates a+b.
(§9) The value E corresponds to the effect (plant damage or injury) which is to be expected if the activity of the individual compounds is additive.

Geranium dissectum = test: Greenhouse pre-emergence herbicidal activity; details: preemergence, GERDI, 20 DAT
Experimental: as §1, §2, §3, §4, §5, §6, §7, §8, §9

Polygonum convolvulus = test: Greenhouse pre-emergence herbicidal activity; details: preemergence, POLCO, 20 DAT
Experimental: as §1, §2, §3, §4, §5, §6, §7, §8, §9

Anthemis arvensis [1] = test: Greenhouse pre-emergence herbicidal activity; details: preemergence, ANTAR, 20 DAT
Experimental: as §1, §2, §3, §4, §5, §6, §7, §8, §9

Papaver rhoeas = test: Greenhouse pre-emergence herbicidal activity; details: preemergence, PAPRH, 20 DAT
Experimental: as §1, §2, §3, §4, §5, §6, §7, §8, §9

Lolium multiflorum [2] = test: Greenhouse pre-emergence herbicidal activity; details: preemergence, LOLMU, 20 DAT
Experimental: as §1, §2, §3, §4, §5, §6, §7, §8, §9

Anthemis arvensis [3] = test: Greenhouse post-emergence herbicidal activity; details: postemergence, ANTAR, 20 DAT
Experimental: as §1
(§10) For the post emergence treatment, the plants were first grown to the 2 leaf station (GS 12) and applied at GS 12-19 depending on the species. Here, the herbicidal compositions were suspended or emulsified in water as distribution medium and sprayed using finely distributing nozzels.
as §3, §4, §5, §6, §7, §8, §9

Lolium multiflorum [4] = test: Greenhouse post-emergence herbicidal activity; details: postemergence, LOLMU, 20 DAT
Experimental: as §1, §10, §3, §4, §5, §6, §7, §8, §9

[5] = solo application herbicide A 62.5 g ai/ha
[6] = solo application herbicide A 250 g ai/ha
[7] = solo application herbicide A 125 g ai/ha
[8] = solo application clomazone 125 g ai/ha
[9] = solo application clomazone 187.5 g ai/ha
[10] = solo application clomazone 500 g ai/ha
[11] = solo application clomazone 250 g ai/ha
[12] = solo application clomazone 750 g ai/ha

Cc1ccccc1CO[C@@H]1C[C@@]2(C(C)C)CC[C@]1(C)O2 (racemic) [herbicide A, (±)-2-exo-(2-Methylbenzyloxy)-1-methyl-4-isopropyl-7-oxabicyclo[2.2.1]heptane]
herbicidal activity (Brassica napus; [5]): 0% | herbicidal activity (Brassica napus; [6]): 15% | herbicidal activity (Brassica napus; solo application herbicide A 500 g ai/ha): 40% | herbicidal activity (Geranium dissectum; [5]): 70% | herbicidal activity (Geranium dissectum; [7]): 70% | herbicidal activity (Geranium dissectum; [6]): 70% | herbicidal activity (Polygonum convolvulus; [5]): 0% | herbicidal activity (Anthemis arvensis [1]; [5]): 0% | herbicidal activity (Anthemis arvensis [1]; [7]): 20% | herbicidal activity (Papaver rhoeas; [6]): 65% | herbicidal activity (Lolium multiflorum [2]; [5]): 85% | herbicidal activity (Anthemis arvensis [3]; [7]): 0% | herbicidal activity (Anthemis arvensis [3]; [6]): 40% | herbicidal activity (Lolium multiflorum [4]; [5]): 35%

CC1(C)CON(Cc2ccccc2Cl)C1=O [clomazone, 2-(2-chlorobenzyl)-4,4-dimethyl-1,2-oxazolidin-3-one]
herbicidal activity (Brassica napus; [8]): 40% | herbicidal activity (Brassica napus; [9]): 45% | herbicidal activity (Brassica napus; [10]): 75% | herbicidal activity (Brassica napus; solo application clomazone 1000 g ai/ha): 90% | herbicidal activity (Geranium dissectum; [8]): 30% | herbicidal activity (Geranium dissectum; [11]): 40% | herbicidal activity (Geranium dissectum; [12]): 80% | herbicidal activity (Polygonum convolvulus; [8]): 75% | herbicidal activity (Anthemis arvensis [1]; [8]): 60% | herbicidal activity (Anthemis arvensis [1]; [11]): 85% | herbicidal activity (Papaver rhoeas; [10]): 90% | herbicidal activity (Lolium multiflorum [2]; [8]): 85% | herbicidal activity (Anthemis arvensis [3]; solo application clomazone 375 g ai/ha): 75% | herbicidal activity (Anthemis arvensis [3]; [12]): 90% | herbicidal activity (Lolium multiflorum [4]; [8]): 80% | herbicidal activity (Lolium multiflorum [4]; [9]): 90%
